Experiment: mn = molality of the nth substance listed, in mol/kg
Conditions: Liquid, Vibrating tube method

[Br-].[Li+] [lithium bromide] + CCO
Conditions	mass density [kg/m3]
373.16 K, 5125 kPa, m1 = 0.5972	762.2
373.16 K, 9909 kPa, m1 = 1.462	822.87
373.16 K, 29954 kPa, m1 = 0.2335	764.93
373.16 K, 40172 kPa, m1 = 0.5972	798.56
373.16 K, 49979 kPa, m1 = 0.5972	807.22
373.16 K, 79993 kPa, m1 = 1.462	881.25
373.16 K, 89924 kPa, m1 = 1.462	887.37
373.16 K, 99892 kPa, m1 = 2.272	936.43
373.17 K, 1353 kPa, m1 = 2.272	860.5
373.17 K, 20097 kPa, m1 = 1.462	833.45
373.17 K, 29993 kPa, m1 = 1.462	842.95
373.17 K, 49993 kPa, m1 = 1.462	860.02
373.17 K, 50023 kPa, m1 = 0.2335	783.79
373.17 K, 59801 kPa, m1 = 0.5972	815.22
373.17 K, 99791 kPa, m1 = 1.462	893.1
373.18 K, 4985 kPa, m1 = 2.272	864.78
373.18 K, 9782 kPa, m1 = 2.272	870.51
373.19 K, 19637 kPa, m1 = 2.272	879.78
373.19 K, 29927 kPa, m1 = 2.272	888.82
373.19 K, 39864 kPa, m1 = 2.272	896.99
373.19 K, 40176 kPa, m1 = 1.462	851.97
398.11 K, 79836 kPa, m1 = 2.272	910.54
398.12 K, 10085 kPa, m1 = 1.462	801.33
398.12 K, 39724 kPa, m1 = 2.272	879.8
398.12 K, 49958 kPa, m1 = 2.272	888.51
398.12 K, 59977 kPa, m1 = 2.272	896.37
398.12 K, 69928 kPa, m1 = 2.272	903.66
398.13 K, 5252 kPa, m1 = 1.462	795.21
398.13 K, 29993 kPa, m1 = 2.272	870.74
398.13 K, 39727 kPa, m1 = 3.368	934.47
398.14 K, 9704 kPa, m1 = 2.272	848.87
398.14 K, 9986 kPa, m1 = 2.833	879.45
398.14 K, 19987 kPa, m1 = 3.368	916.46
398.14 K, 20117 kPa, m1 = 2.272	860.65
398.14 K, 29928 kPa, m1 = 0.2335	744.1
398.14 K, 29993 kPa, m1 = 3.368	926
398.14 K, 39959 kPa, m1 = 1.462	834.18
398.14 K, 40001 kPa, m1 = 0.5972	779.67
398.14 K, 49956 kPa, m1 = 2.833	917.53
398.14 K, 89925 kPa, m1 = 2.833	945.26
398.14 K, 99863 kPa, m1 = 0.5972	827.19
398.15 K, 1326 kPa, m1 = 2.833	868.98
398.15 K, 1425 kPa, m1 = 0.9499	756.04
398.15 K, 2012 kPa, m1 = 3.368	896.84
398.15 K, 2214 kPa, m1 = 1.462	790.21
398.15 K, 2451 kPa, m1 = 0.2335	705.58
398.15 K, 2804 kPa, m1 = 0.5972	733.32
398.15 K, 5002 kPa, m1 = 2.833	873.54
398.15 K, 5024 kPa, m1 = 0.2335	709.8
398.15 K, 5025 kPa, m1 = 0.9499	761.36
398.15 K, 9911 kPa, m1 = 3.368	905.89
398.15 K, 9986 kPa, m1 = 0.9499	768.11
398.15 K, 10023 kPa, m1 = 0.2335	717.61
398.15 K, 19859 kPa, m1 = 1.462	812.89
398.15 K, 19923 kPa, m1 = 0.9499	780.63
398.15 K, 19925 kPa, m1 = 2.833	890.37
398.15 K, 29784 kPa, m1 = 0.9499	791.83
398.15 K, 29946 kPa, m1 = 1.462	823.95
398.15 K, 29996 kPa, m1 = 0.5972	769.06
398.15 K, 39926 kPa, m1 = 0.9499	802.25
398.15 K, 39941 kPa, m1 = 0.2335	754.26
398.15 K, 40021 kPa, m1 = 2.833	909.38
398.15 K, 49925 kPa, m1 = 1.462	843.34
398.15 K, 49926 kPa, m1 = 3.368	942.62
398.15 K, 49931 kPa, m1 = 0.2335	764.05
398.15 K, 49993 kPa, m1 = 0.5972	789.19
398.15 K, 50024 kPa, m1 = 0.9499	811.67
398.15 K, 59926 kPa, m1 = 0.9499	820.12
398.15 K, 59926 kPa, m1 = 2.833	925.07
398.15 K, 69784 kPa, m1 = 0.9499	827.92
398.15 K, 69953 kPa, m1 = 0.2335	781.36
398.15 K, 69979 kPa, m1 = 0.5972	805.77
398.15 K, 79787 kPa, m1 = 0.5972	813.07
398.15 K, 79935 kPa, m1 = 0.9499	835.45
398.15 K, 80002 kPa, m1 = 2.833	938.86
398.15 K, 89921 kPa, m1 = 0.2335	795.82
398.15 K, 89936 kPa, m1 = 0.9499	842.54
398.15 K, 89963 kPa, m1 = 2.272	917.33
398.15 K, 89994 kPa, m1 = 0.5972	820.32
398.15 K, 99021 kPa, m1 = 0.9499	848.81
398.15 K, 99624 kPa, m1 = 0.2335	802.67
398.15 K, 99816 kPa, m1 = 1.462	879.34
398.15 K, 99985 kPa, m1 = 2.833	951.65
398.15 K, 100000 kPa, m1 = 3.368	976.03
398.16 K, 5023 kPa, m1 = 3.368	900.37
398.16 K, 19941 kPa, m1 = 0.5972	757.12
398.16 K, 19974 kPa, m1 = 0.2335	731.71
398.16 K, 29947 kPa, m1 = 2.833	900.32
398.16 K, 60031 kPa, m1 = 1.462	851.51
398.16 K, 60122 kPa, m1 = 3.368	950.15
398.16 K, 69784 kPa, m1 = 2.833	932.03
398.16 K, 69947 kPa, m1 = 1.462	859.16
398.16 K, 69957 kPa, m1 = 3.368	956.94
398.16 K, 79919 kPa, m1 = 3.368	963.47
398.16 K, 80014 kPa, m1 = 0.2335	788.79
398.16 K, 89928 kPa, m1 = 1.462	872.71
398.16 K, 89993 kPa, m1 = 3.368	969.83
398.17 K, 5071 kPa, m1 = 0.5972	736.75
398.17 K, 9730 kPa, m1 = 0.5972	743.51
398.17 K, 59907 kPa, m1 = 0.5972	797.77
398.17 K, 59978 kPa, m1 = 0.2335	773.47
398.18 K, 1833 kPa, m1 = 2.272	839.1
398.18 K, 80059 kPa, m1 = 1.462	866.49
398.19 K, 99619 kPa, m1 = 2.272	923.71
398.22 K, 4702 kPa, m1 = 2.272	842.75

— the NIST ThermoML archive (doi:10.1021/je1003065)
